Literature values in patent US8097743B2, “Process for manufacture of blocked mercaptosilane coupling agents” (Momentive Performance Materials Inc., priority 2002, dated 2012).

Details: cited from earlier work

Compound | Miscibility with water (classification) (below 18.7° C.) | Solubility in water (classification)
CCN(CC)CC [TEA, triethylamine] | completely miscible | 
CCCN(CCC)CCC [TNPA, tri-n-propylamine] |  | very slightly soluble
